Laboratory results from PubChem BioAssay AID1996.
Converted amounts (≈) assume the structure as drawn.

Conditions: buffer; pH 7.4; 200.0 µM

| SMILES | solubility kinetic [µg/mL] |
| --- | --- |
| COc1cc(OC)cc(C(=O)N[C@H](C(=O)OCC(=O)c2c[nH]c3ccccc23)C(C)C)c1 | 3.8 (≈ 8.67 µM) |
| O=C1CCCC2=C1C(c1cccs1)CC(=O)N2c1ccc(F)cc1 (stereo not given) | 40.7 (≈ 119 µM) |
| CC(NCc1cccnc1)c1ccccc1 (stereo not given) | > 31.8 |
| CC1CCCC(NC(=O)CCC(=O)NCc2ccccc2)C1C (stereo not given) | 44.7 (≈ 141 µM) |
| CNC(=S)Nc1cc(C)ccc1OC(F)F | > 36.9 |
| Cc1cccc(N2CCN(CC3CCCCC3)CC2)c1C | 2.9 (≈ 10.1 µM) |
| CSc1ccccc1C(=O)OCC(=O)Nc1ccc(N2CCOCC2)cc1 | 9.3 (≈ 24.1 µM) |
| CC(CCc1ccccc1)N1CCN(C)CC1 (stereo not given) | 33.2 (≈ 143 µM) |
| O=C(Nc1ccccc1C(=O)NCCCN1CCOCC1)c1ccc(F)cc1 | 55.4 (≈ 144 µM) |
| Cc1oncc1C(=O)Nc1cccc2ccccc12 | 34 (≈ 135 µM) |
| CC1CCCCC1NC(=O)COC(=O)c1ccc2c(=O)n3c(nc2c1)CCC3 (stereo not given) | 22.2 (≈ 57.9 µM) |
| Cc1cc(/C(N)=N/OC(=O)Nc2ccccc2)no1 | 15.7 (≈ 60.3 µM) |
| COc1ccc(NC(=O)CN(C)CC(=O)NCC2CCCCC2)cc1 | > 52.1 |
| Cl.O=C(Nc1cccc(F)c1)[C@@H]1CCCN1 | > 36.7 |
| CC(NC(=O)c1ccco1)C(=O)OC(C)C(=O)NCc1ccccc1 (stereo not given) | 46.3 (≈ 134 µM) |
| Cc1cccc(C)c1NC(=O)c1c[nH]c2ccccc12 | > 39.6 |
| N/C(=N\OC(=O)CCCc1ccccc1)c1ccccc1Cl | 11.4 (≈ 36 µM) |
| COc1ccc(S(=O)(=O)N(C)CC(=O)N2CCCC2)cc1 | > 46.9 |
| O=C(NC(=S)N1CCN(c2ccccc2)CC1)c1ccccc1 | 6.4 (≈ 19.7 µM) |
| COCc1nc2ccccc2n1Cc1ccccc1C | > 40 |

| SMILES | solubility kinetic [µg/mL] |
| --- | --- |
| COc1cc(NC(=O)CCN2CCN(C)CC2)cc(OC)c1 | > 46.1 |
| CCOC(=O)C1=C(COC(=O)Cc2ccccc2)NC(=O)NC1C (stereo not given) | > 49.9 |
| Cc1cccc(C(C)C)c1NS(=O)(=O)c1cn(C)nc1C | > 46.1 |
| COC(=O)c1c(S(=O)(=O)N2CCOCC2)c(C)n(C)c1C | > 47.5 |
| CCOC(=O)Cn1ccc(-c2ccccc2)c(C#N)c1=O | > 42.3 |
| O=C(Nc1ccccc1F)C1CCCC1 | 23.4 (≈ 113 µM) |
| CC(C)C1Nc2ccc(C(=O)NC3CCCCC3)cc2NC1=O (stereo not given) | > 47.3 |
| O=C(NC1CCCCCC1)c1ccc(Br)o1 | 27.7 (≈ 96.8 µM) |
| CCCCN(C(=O)C1CCC1)c1c(N)n(CCC)c(=O)[nH]c1=O | > 48.4 |
| Cc1ccccc1NC(=O)CSc1ccncc1 | 36 (≈ 139 µM) |
| CN(C)C(=O)c1cc([N+](=O)[O-])ccc1O | > 31.5 |
| Cc1nn(CC(=O)NC2CCC(C)CC2)c(=O)c(C#N)c1C (stereo not given) | > 45.4 |
| COc1ccc(Oc2ncccc2[N+](=O)[O-])cc1 | > 36.9 |
| CC(C)(C)NC(=O)COc1ccc(S(=O)(=O)N2CCCC2)cc1 | > 51.1 |
| CCOC(=O)C(NC(C)=O)C(O)c1ccc([N+](=O)[O-])cc1 (stereo not given) | 43.2 (≈ 146 µM) |
| Fc1ccc(NC(=S)NCc2ccccc2)cc1 | > 39 |
| CC12CCC(=O)N1C(C(=O)Nc1nc3ccccc3s1)CS2 (stereo not given) | 13 (≈ 39 µM) |
| O=C(OCC(=O)c1ccc[nH]1)c1ccc(F)c(S(=O)(=O)N2CCOCC2)c1 | 7.8 (≈ 19.7 µM) |
| COc1cc2nc(CN3CCN(S(=O)(=O)c4cc(C)ccc4C)CC3)[nH]c(=O)c2cc1OC | 9.7 (≈ 20.5 µM) |
| O=C(Nc1cc(-c2ccccc2)cs1)c1ccco1 | 4.7 (≈ 17.5 µM) |

| SMILES | solubility kinetic [µg/mL] |
| --- | --- |
| C=CCNC(=O)C1CCC(C(=O)NCC=C)CC1 (stereo not given) | > 37.6 |
| Cn1c(N)c(C(=O)Nc2ccc(-c3ccccc3)cc2)sc1=S | 0.6 (≈ 1.76 µM) |
| Cn1c(=O)c2nc(-c3ccccc3)c(-c3ccccc3)nc2n(C)c1=O | 0.9 (≈ 2.61 µM) |
| COc1ccc(C(=O)N2CCC2)cc1S(=O)(=O)NCc1ccc(Cl)cc1 | 57.4 (≈ 145 µM) |
| Cc1ccc(C)c(NC(=S)NCCCN2CCOCC2)c1 | > 46.1 |
| O=[n+]1cc(-c2ccc(Cl)cc2)n([O-])c2c1CCC2 | > 39.4 |
| Cc1cc(C(c2cc(C)c(N)c(C)c2)c2ccco2)cc(C)c1N | 23.9 (≈ 74.6 µM) |
| CC1=C(C(=O)OCC2CCCCC2)C(c2cccc(O)c2)NC(=O)N1 (stereo not given) | 37.3 (≈ 108 µM) |
| CCOc1ccc(C(=O)N[C@H](C(=O)Nc2ccc(S(=O)(=O)Nc3nccs3)cc2)C(C)C)cc1 | 62.3 (≈ 124 µM) |
| O=[N+]([O-])c1ccccc1CNC1CCCc2ccccc21 (stereo not given) | 20.8 (≈ 73.7 µM) |
| O=C(COC(=O)C1CC1)Nc1ccc(S(=O)(=O)N2CCOCC2)cc1 | > 55.3 |
| COc1ccccc1CCN=C(N)NS(=O)(=O)c1ccc(C)c(C)c1 | 8.3 (≈ 23 µM) |
| COc1ccc(NC(=O)/C(C#N)=C/c2ccc(-c3ccccc3C(=O)O)o2)cc1 | > 58.3 |
| COc1ccccc1Nc1ncnc2c1c(C)c(C)n2CCO | 15.4 (≈ 49.3 µM) |
| O=C(Nc1ccccc1C(=O)Nc1ccccc1)c1cccs1 | 1 (≈ 3.1 µM) |
| COc1ccc(NS(=O)(=O)c2csc(C(N)=O)c2)cc1 | > 46.9 |
| O=C(CSc1cccc[n+]1[O-])Nc1cc(Cl)ccc1[N+](=O)[O-] | > 51 |
| COC(=O)CCc1nc2ccccc2nc1OC | > 36.9 |
| O=C1CN(C(=O)/C=C/c2ccccc2F)c2ccccc2N1 | 12.9 (≈ 43.5 µM) |
| O=C(/C=C/c1cccc([N+](=O)[O-])c1)c1ccco1 | 1.7 (≈ 6.99 µM) |
